{"source": "the supplement of paper PMC10307832", "assay_in_all_cases": "relative viability (nuclei count vs DMSO), 5 days (fraction); higher = more cells survive", "key": {"[1]": {"compound": "COc1cc(Nc2ncc3c(n2)-c2ccc(Cl)cc2C(c2c(F)cccc2OC)=NC3)ccc1C(=O)O [Alisertib] + NC(=O)Nc1cc(-c2cccc(F)c2)sc1C(=O)N[C@H]1CCCNC1 [AZD7762] (partner 0.2 µM)", "method_in_brief": "(§1)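 Lung cancer cell lines in 1536-well plates were dosed by pin tool the day after seeding, either with one drug alone or with a fixed anchor-drug dose plus five library-drug doses (not always all listed) in √10 steps. After 5 days, cells were fixed and their nuclei stained in one step (final 0.05% Triton X-100, 1% formaldehyde, 1 ug/ml Hoechst), then counted on 4× images. Relative viability is the nuclei count in treated wells divided by that in vehicle wells. Values are medians of duplicate plates.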"}, "[2]": {"compound": "COc1cc(Nc2ncc3c(n2)-c2ccc(Cl)cc2C(c2c(F)cccc2OC)=NC3)ccc1C(=O)O [Alisertib] + Nc1nc2[nH]cc(CCc3ccc(C(=O)N[C@@H](CCC(=O)O)C(=O)O)cc3)c2c(=O)[nH]1 [Pemetrexed] (partner 0.2 µM)", "method_in_brief": "as §1"}, "[3]": {"compound": "COc1cc(Nc2ncc3c(n2)-c2ccc(Cl)cc2C(c2c(F)cccc2OC)=NC3)ccc1C(=O)O [Alisertib] + COc1cccc2cc(-c3nc([C@H]4CC[C@H](C(=O)O)CC4)n4ncnc(N)c34)[nH]c12 [OSI-027] (partner 0.5 µM)", "method_in_brief": "as §1"}, "[4]": {"compound": "COc1cc(Nc2ncc3c(n2)-c2ccc(Cl)cc2C(c2c(F)cccc2OC)=NC3)ccc1C(=O)O [Alisertib] + COc1cc2c(Oc3ccc(NC(=O)C4(C(=O)Nc5ccc(F)cc5)CC4)cc3F)ccnc2cc1OCCCN1CCOCC1 [Foretinib] (partner 0.25 µM)", "method_in_brief": "as §1"}}}
{"cell line": "HCC-44", "values": [{"measurement": "relative viability", "setting": "[1]; first compound 0.005 µM", "result": 0.888}, {"measurement": "relative viability", "setting": "[1]; first compound 0.01581 µM", "result": 0.992}, {"measurement": "relative viability", "setting": "[1]; first compound 0.05 µM", "result": 0.966}, {"measurement": "relative viability", "setting": "[1]; first compound 0.1581 µM", "result": 0.588}, {"measurement": "relative viability", "setting": "[1]; first compound 0.5 µM", "result": 0.439}, {"measurement": "relative viability", "setting": "[2]; first compound 0.005 µM", "result": 0.566}, {"measurement": "relative viability", "setting": "[2]; first compound 0.01581 µM", "result": 0.601}, {"measurement": "relative viability", "setting": "[2]; first compound 0.05 µM", "result": 0.545}, {"measurement": "relative viability", "setting": "[2]; first compound 0.1581 µM", "result": 0.45}, {"measurement": "relative viability", "setting": "[2]; first compound 0.5 µM", "result": 0.394}, {"measurement": "relative viability", "setting": "[3]; first compound 0.005 µM", "result": 0.465}, {"measurement": "relative viability", "setting": "[3]; first compound 0.01581 µM", "result": 0.313}, {"measurement": "relative viability", "setting": "[3]; first compound 0.05 µM", "result": 0.368}, {"measurement": "relative viability", "setting": "[3]; first compound 0.1581 µM", "result": 0.166}, {"measurement": "relative viability", "setting": "[3]; first compound 0.5 µM", "result": 0.186}]}
{"cell line": "NCI-H2228", "values": [{"measurement": "relative viability", "setting": "[2]; first compound 0.005 µM", "result": 0.344}, {"measurement": "relative viability", "setting": "[2]; first compound 0.01581 µM", "result": 0.336}, {"measurement": "relative viability", "setting": "[2]; first compound 0.05 µM", "result": 0.26}, {"measurement": "relative viability", "setting": "[2]; first compound 0.1581 µM", "result": 0.121}, {"measurement": "relative viability", "setting": "[2]; first compound 0.5 µM", "result": 0.0987}, {"measurement": "relative viability", "setting": "[3]; first compound 0.005 µM", "result": 0.589}, {"measurement": "relative viability", "setting": "[3]; first compound 0.01581 µM", "result": 0.466}, {"measurement": "relative viability", "setting": "[3]; first compound 0.05 µM", "result": 0.27}, {"measurement": "relative viability", "setting": "[3]; first compound 0.1581 µM", "result": 0.0993}, {"measurement": "relative viability", "setting": "[3]; first compound 0.5 µM", "result": 0.115}, {"measurement": "relative viability", "setting": "[4]; first compound 0.005 µM", "result": 0.734}, {"measurement": "relative viability", "setting": "[4]; first compound 0.01581 µM", "result": 0.642}, {"measurement": "relative viability", "setting": "[4]; first compound 0.05 µM", "result": 0.493}, {"measurement": "relative viability", "setting": "[4]; first compound 0.1581 µM", "result": 0.0956}, {"measurement": "relative viability", "setting": "[4]; first compound 0.5 µM", "result": 0.114}]}
{"cell line": "ABC-1", "values": [{"measurement": "relative viability", "setting": "[1]; first compound 0.01581 µM", "result": 0.594}, {"measurement": "relative viability", "setting": "[1]; first compound 0.05 µM", "result": 0.648}, {"measurement": "relative viability", "setting": "[1]; first compound 0.1581 µM", "result": 0.307}, {"measurement": "relative viability", "setting": "[1]; first compound 0.5 µM", "result": 0.272}, {"measurement": "relative viability", "setting": "[3]; first compound 0.005 µM", "result": 0.42}, {"measurement": "relative viability", "setting": "[3]; first compound 0.01581 µM", "result": 0.375}, {"measurement": "relative viability", "setting": "[3]; first compound 0.05 µM", "result": 0.339}, {"measurement": "relative viability", "setting": "[3]; first compound 0.1581 µM", "result": 0.195}, {"measurement": "relative viability", "setting": "[3]; first compound 0.5 µM", "result": 0.185}, {"measurement": "relative viability", "setting": "[4]; first compound 0.005 µM", "result": 1.08}, {"measurement": "relative viability", "setting": "[4]; first compound 0.01581 µM", "result": 1.06}, {"measurement": "relative viability", "setting": "[4]; first compound 0.05 µM", "result": 0.58}, {"measurement": "relative viability", "setting": "[4]; first compound 0.1581 µM", "result": 0.344}, {"measurement": "relative viability", "setting": "[4]; first compound 0.5 µM", "result": 0.22}]}
{"cell line": "COR-L23", "values": [{"measurement": "relative viability", "setting": "[2]; first compound 0.005 µM", "result": 0.197}, {"measurement": "relative viability", "setting": "[2]; first compound 0.01581 µM", "result": 0.196}, {"measurement": "relative viability", "setting": "[2]; first compound 0.05 µM", "result": 0.189}, {"measurement": "relative viability", "setting": "[2]; first compound 0.1581 µM", "result": 0.179}, {"measurement": "relative viability", "setting": "[2]; first compound 0.5 µM", "result": 0.134}, {"measurement": "relative viability", "setting": "[3]; first compound 0.005 µM", "result": 0.739}, {"measurement": "relative viability", "setting": "[3]; first compound 0.01581 µM", "result": 0.661}, {"measurement": "relative viability", "setting": "[3]; first compound 0.05 µM", "result": 0.517}, {"measurement": "relative viability", "setting": "[3]; first compound 0.1581 µM", "result": 0.133}, {"measurement": "relative viability", "setting": "[3]; first compound 0.5 µM", "result": 0.13}, {"measurement": "relative viability", "setting": "[4]; first compound 0.005 µM", "result": 0.848}, {"measurement": "relative viability", "setting": "[4]; first compound 0.01581 µM", "result": 0.823}, {"measurement": "relative viability", "setting": "[4]; first compound 0.05 µM", "result": 0.606}, {"measurement": "relative viability", "setting": "[4]; first compound 0.1581 µM", "result": 0.243}, {"measurement": "relative viability", "setting": "[4]; first compound 0.5 µM", "result": 0.128}]}
{"cell line": "NCI-H727", "values": [{"measurement": "relative viability", "setting": "[1]; first compound 0.005 µM", "result": 0.618}, {"measurement": "relative viability", "setting": "[1]; first compound 0.01581 µM", "result": 0.586}, {"measurement": "relative viability", "setting": "[1]; first compound 0.05 µM", "result": 0.591}, {"measurement": "relative viability", "setting": "[1]; first compound 0.1581 µM", "result": 0.398}, {"measurement": "relative viability", "setting": "[1]; first compound 0.5 µM", "result": 0.326}, {"measurement": "relative viability", "setting": "[3]; first compound 0.005 µM", "result": 0.573}, {"measurement": "relative viability", "setting": "[3]; first compound 0.01581 µM", "result": 0.466}, {"measurement": "relative viability", "setting": "[3]; first compound 0.05 µM", "result": 0.421}, {"measurement": "relative viability", "setting": "[3]; first compound 0.1581 µM", "result": 0.482}, {"measurement": "relative viability", "setting": "[3]; first compound 0.5 µM", "result": 0.374}, {"measurement": "relative viability", "setting": "[4]; first compound 0.005 µM", "result": 0.658}, {"measurement": "relative viability", "setting": "[4]; first compound 0.01581 µM", "result": 0.922}, {"measurement": "relative viability", "setting": "[4]; first compound 0.05 µM", "result": 0.488}, {"measurement": "relative viability", "setting": "[4]; first compound 0.1581 µM", "result": 0.352}, {"measurement": "relative viability", "setting": "[4]; first compound 0.5 µM", "result": 0.417}]}
